Data as given in patent US6947847B2, “Method to design therapeutically important compounds” (Wisconsin Alumni Research Foundation, priority 2002, dated 2005).
Where two headings read alike, the source gives them in different places.

Legend:
porcine pepsin = porcine pepsin (Sus scrofa, UniProt P00791); experiment: Inhibition of substrate hydrolysis by porcine pepsin; format: biochemical
R. chinensis pepsin = target: T1, R. chinensis pepsin (Rhizopus chinensis, UniProt P06026); experiment: biochemical
T1 sequence (P06026 69-393): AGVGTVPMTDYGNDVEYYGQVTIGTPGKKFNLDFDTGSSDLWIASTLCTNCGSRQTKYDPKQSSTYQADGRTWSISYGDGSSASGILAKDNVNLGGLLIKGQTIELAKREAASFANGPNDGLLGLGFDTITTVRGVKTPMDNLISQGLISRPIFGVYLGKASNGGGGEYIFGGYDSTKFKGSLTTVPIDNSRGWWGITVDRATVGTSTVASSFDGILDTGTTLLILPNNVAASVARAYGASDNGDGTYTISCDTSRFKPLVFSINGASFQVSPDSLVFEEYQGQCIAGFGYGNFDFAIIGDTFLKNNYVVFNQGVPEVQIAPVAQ
Protocol: Inhibition of substrate hydrolysis by porcine pepsin and R. chinensis pepsin was determined using prior art assay conditions. See Flentke et al. (1999) Protein Expression Purif. 16:213 and Peranteau et al. (1995) Anal. Biochem. 227:242.

human renin = human renin (Homo sapiens, UniProt P00797); details: cited from earlier work
Sequence of human renin (P00797 67-406): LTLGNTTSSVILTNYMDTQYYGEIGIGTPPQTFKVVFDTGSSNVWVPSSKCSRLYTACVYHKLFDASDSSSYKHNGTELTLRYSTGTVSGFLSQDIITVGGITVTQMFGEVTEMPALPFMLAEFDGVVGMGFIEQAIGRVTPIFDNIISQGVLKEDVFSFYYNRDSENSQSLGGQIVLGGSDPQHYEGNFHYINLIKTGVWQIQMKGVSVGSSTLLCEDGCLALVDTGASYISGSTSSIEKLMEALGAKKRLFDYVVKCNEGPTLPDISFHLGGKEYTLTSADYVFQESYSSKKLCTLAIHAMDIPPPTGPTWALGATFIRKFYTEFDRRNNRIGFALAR

Sequence of porcine pepsin (P00791 60-385): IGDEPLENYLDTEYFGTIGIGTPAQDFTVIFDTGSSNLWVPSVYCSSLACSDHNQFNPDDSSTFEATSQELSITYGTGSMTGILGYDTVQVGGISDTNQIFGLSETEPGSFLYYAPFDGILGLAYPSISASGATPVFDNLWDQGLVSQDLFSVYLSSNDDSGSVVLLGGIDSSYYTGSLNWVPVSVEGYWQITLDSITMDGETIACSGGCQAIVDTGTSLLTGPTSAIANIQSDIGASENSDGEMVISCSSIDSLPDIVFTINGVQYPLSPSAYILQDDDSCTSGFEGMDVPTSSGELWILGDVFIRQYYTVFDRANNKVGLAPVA

## Brc1ccc(CO[C@H]2CNCC[C@@H]2c2ccccc2)cc1 [Compound 12]
Porcine pepsin
  IC50: 2000 nM
R. chinensis pepsin; R. chinensis pepsin, read-out: IC50
  IC50: 2000 nM

## COc1ccc(CO[C@H]2CNCCC2c2ccc(Cl)cc2)cc1 (stereo partly drawn) [Compound 4]
Human renin; human renin, literature
  concentrations at which renin is inhibited (in words): low micromolar
Human renin; read-out: inhibits renin at, renin, literature value
  IC50: ~26000 nM

## O=C(COc1ccc([C@H]2CCNC[C@@H]2OCc2ccc(Br)cc2)cc1)c1ccc2ccccc2c1 [Compound 11]
Porcine pepsin; porcine pepsin, read-out: IC50
  IC50: 200 nM
R. chinensis pepsin
  IC50: 200 nM
